{"source": "patent US20210318318A1", "about": "“Kinase Activity In Tumors” (Institute For Cancer Research d/b/a The Research Institute …, priority 2018, published 2021)", "format_in_all_cases": "cell-based, human", "key": {"COV362": {"tested_on": "COV362", "assay": "Short-term growth assay (CellTiter-Glo cell viability), kinase inhibitors", "method": "(§1) Cell viability was determined by Cell Titer Glo analysis.\nCOV362 cells were treated with increasing concentrations of A-674563 and cell viability assessed by Cell Titer Glo according to manufacturer's instructions. Data represent the mean of six replicates.\n(§2) To explore the therapeutic potential of the HGSOC kinome signature, a detailed molecular analysis of protein levels/activity, growth and survival functions was carried out in a panel of recently validated HGSOC cell lines (Coscia et al., Nat. Commun., 2016, 7, 12645) that harbor commonly encountered HGSOC mutations and genetic rearrangements (see, FIG. 5A).\n(§3) For short-term growth assays, 3000-5000 cells were plated per well in 96-well plates and allowed to adhere and equilibrate overnight. Drug was added the following morning and after 120 hours of drug treatment, cell viability was assessed using the CellTiter-Glo Luminescent cell viability assay according to manufacturer (Promega). Students t tests were performed for statistical analyses and p values ≤0.05 were considered significant. For colony formation assays, cells were plated in 24-well dishes (3000-5000 cells per well) and incubated overnight before continuous drug treatment for 14 days, with drug and media replaced twice weekly. At the end of treatment, cells were rinsed with PBS and fixed with chilled methanol for 10 minutes at −20° C. Methanol was removed by aspiration, and cells were stained with 0.5% crystal violet in 20% methanol for 20 minutes at room temperature, washed with distilled water, and scanned."}, "Kuramochi": {"tested_on": "Kuramochi", "assay": "Short-term growth assay (CellTiter-Glo cell viability), kinase inhibitors", "method": "as §1, §2, §3"}, "OVCAR4": {"tested_on": "OVCAR4", "assay": "Short-term growth assay (CellTiter-Glo cell viability), kinase inhibitors", "method": "as §1, §2, §3"}, "OVSAHO": {"tested_on": "OVSAHO", "assay": "Short-term growth assay (CellTiter-Glo cell viability), kinase inhibitors", "method": "as §1, §2, §3"}, "SNU-119": {"tested_on": "SNU-119", "assay": "Short-term growth assay (CellTiter-Glo cell viability), kinase inhibitors", "method": "as §1, §2, §3"}, "HGSOC cells": {"tested_on": "HGSOC cells", "assay": "Cell viability of HGSOC cell line panel (Cell Titer Glo)", "settings": "increasing concentrations; Cell Titer Glo", "method": "Cells were treated with increasing concentrations of PF-03758309 and cell viability assessed by Cell Titer Glo according to manufacturer's instructions. Data represent the mean of six replicates.\nCell viability was assessed by Cell Titer Glo according to manufacturing. Data represent the mean of six replicates.\nas §3"}, "OVCAR4 cells": {"tested_on": "OVCAR4 cells", "assay": "Drug growth inhibition in cells depleted of dark kinases by siRNA (Cell Titer Glo)", "settings": "increasing doses of drug", "method": "OVCAR4 cells were transfected with control nontargeting or dark kinase siRNAs and treated with escalating doses of appropriate drugs.\nTo explore if blocking dark kinases AAK1, STK38 or MRCKA activity in combination with current therapies improves drug efficacy, OVCAR4 cells depleted of AAK1, STK38 or MRCKA were treated with increasing doses of carboplatin, olaparib, JQ1, or a variety of kinase inhibitors in clinical trials for HGSOC.\nsiRNA transfections were performed using 25 nM siRNA duplex and the reverse transfection protocol. 3000-5000 cells per well were added to 96 well plates with media containing the siRNA and transfection reagent (Lipofectamine RNAiMax) according to the manufacturer's instructions. In experiments where inhibitors were used, the inhibitor was added at the time of transfection. Cells were allowed to grow for 72-120 hours post-transfection prior to CellTiter Glo (Promega) analysis. Two-to-three independent experiments were performed with each cell line and siRNA. Students t tests were performed for statistical analyses and p values ≤0.05 were considered significant. For western blot studies, the same procedure was performed with volumes and cell numbers proportionally scaled to a 60 mm or 10 cm dish, and cells were collected 24-72 hours post-transfection. siRNA product numbers and manufacturers are listed in Table 5."}}, "data": [{"compound": "CNC(=O)c1ccccc1Nc1cc(Nc2ccc(N3CCOCC3)cc2OC)ncc1C(F)(F)F", "note": "[PND1186]", "values": [{"measurement": "Kinase inhibition profile of HGSOC cells (growth inhibition, Cell Titer Glo)", "setting": "COV362; drug 1.2 uM", "value": 0.34}, {"measurement": "Kinase inhibition profile of HGSOC cells (growth inhibition, Cell Titer Glo)", "setting": "Kuramochi; drug 1.2 uM", "value": 0.51}, {"measurement": "Kinase inhibition profile of HGSOC cells (growth inhibition, Cell Titer Glo)", "setting": "OVCAR4; drug 1.2 uM", "value": 0.51}, {"measurement": "Kinase inhibition profile of HGSOC cells (growth inhibition, Cell Titer Glo)", "setting": "OVSAHO; drug 1.2 uM", "value": 0.69}, {"measurement": "Kinase inhibition profile of HGSOC cells (growth inhibition, Cell Titer Glo)", "setting": "SNU-119; drug 1.2 uM", "value": 0}, {"measurement": "cell viability of HGSOC cells", "setting": "HGSOC cells", "value": "reduced cell viability"}]}, {"compound": "CC(=O)Nc1cccc(-n2c(=O)n(C3CC3)c(=O)c3c(Nc4ccc(I)cc4F)n(C)c(=O)c(C)c32)c1", "note": "[Trametinib]", "values": [{"measurement": "Kinase inhibition profile of HGSOC cells (growth inhibition, Cell Titer Glo)", "setting": "COV362; drug 0.0125 uM", "value": 0.5766}, {"measurement": "Kinase inhibition profile of HGSOC cells (growth inhibition, Cell Titer Glo)", "setting": "Kuramochi; drug 0.0125 uM", "value": 0.7708}, {"measurement": "Kinase inhibition profile of HGSOC cells (growth inhibition, Cell Titer Glo)", "setting": "OVCAR4; drug 0.0125 uM", "value": 0.8436}, {"measurement": "Kinase inhibition profile of HGSOC cells (growth inhibition, Cell Titer Glo)", "setting": "OVSAHO; drug 0.0125 uM", "value": 0.7824}, {"measurement": "Kinase inhibition profile of HGSOC cells (growth inhibition, Cell Titer Glo)", "setting": "SNU-119; drug 0.0125 uM", "value": 0}]}, {"compound": "AZD4547", "values": [{"measurement": "Kinase inhibition profile of HGSOC cells (growth inhibition, Cell Titer Glo)", "setting": "COV362; drug 5 uM", "value": 0.5474}, {"measurement": "Kinase inhibition profile of HGSOC cells (growth inhibition, Cell Titer Glo)", "setting": "Kuramochi; drug 5 uM", "value": 0.7095}, {"measurement": "Kinase inhibition profile of HGSOC cells (growth inhibition, Cell Titer Glo)", "setting": "OVCAR4; drug 5 uM", "value": 0.5989}, {"measurement": "Kinase inhibition profile of HGSOC cells (growth inhibition, Cell Titer Glo)", "setting": "OVSAHO; drug 5 uM", "value": 0.4351}, {"measurement": "Kinase inhibition profile of HGSOC cells (growth inhibition, Cell Titer Glo)", "setting": "SNU-119; drug 5 uM", "value": 0.738}]}, {"compound": "NC1(c2ccc(-c3nc4ccn5c(=O)[nH]nc5c4cc3-c3ccccc3)cc2)CCC1", "note": "[MK2206]", "values": [{"measurement": "Kinase inhibition profile of HGSOC cells (growth inhibition, Cell Titer Glo)", "setting": "COV362; drug 0.625 uM", "value": 0.8254}, {"measurement": "Kinase inhibition profile of HGSOC cells (growth inhibition, Cell Titer Glo)", "setting": "Kuramochi; drug 0.625 uM", "value": 0.4701}, {"measurement": "Kinase inhibition profile of HGSOC cells (growth inhibition, Cell Titer Glo)", "setting": "OVCAR4; drug 0.625 uM", "value": 0.9771}, {"measurement": "Kinase inhibition profile of HGSOC cells (growth inhibition, Cell Titer Glo)", "setting": "OVSAHO; drug 0.625 uM", "value": 0.6233}, {"measurement": "Kinase inhibition profile of HGSOC cells (growth inhibition, Cell Titer Glo)", "setting": "SNU-119; drug 0.625 uM", "value": 0.9728}]}, {"compound": "Cc1sc2c(c1C)C(c1ccc(Cl)cc1)=N[C@@H](CC(=O)OC(C)(C)C)c1nnc(C)n1-2", "note": "[JQ1]", "values": [{"measurement": "growth inhibition by drug combined with depletion of AAK1", "setting": "OVCAR4 cells", "value": "enhanced growth inhibition"}, {"measurement": "growth inhibition by drug with MRCKA knockdown relative to non-targeting control siRNA", "setting": "OVCAR4 cells", "value": "enhanced growth inhibition"}]}, {"compound": "CCS(=O)(=O)N1CCN(c2ccc(Nc3ncc(C(N)=O)c(NC4CC4)n3)cc2)CC1", "note": "[Cerdulatinib]", "values": [{"measurement": "Kinase inhibition profile of HGSOC cells (growth inhibition, Cell Titer Glo)", "setting": "COV362; drug 2.5 uM", "value": "−0.008256"}, {"measurement": "Kinase inhibition profile of HGSOC cells (growth inhibition, Cell Titer Glo)", "setting": "Kuramochi; drug 2.5 uM", "value": 1}, {"measurement": "Kinase inhibition profile of HGSOC cells (growth inhibition, Cell Titer Glo)", "setting": "OVCAR4; drug 2.5 uM", "value": 0.5051}, {"measurement": "Kinase inhibition profile of HGSOC cells (growth inhibition, Cell Titer Glo)", "setting": "OVSAHO; drug 2.5 uM", "value": 1}, {"measurement": "Kinase inhibition profile of HGSOC cells (growth inhibition, Cell Titer Glo)", "setting": "SNU-119; drug 2.5 uM", "value": 0.8395}]}, {"compound": "CCOc1ccn(-c2ccc(F)cc2)c(=O)c1C(=O)Nc1ccc(Oc2ccnc(N)c2Cl)c(F)c1", "note": "[BMS777607]", "values": [{"measurement": "Kinase inhibition profile of HGSOC cells (growth inhibition, Cell Titer Glo)", "setting": "COV362; drug 1.2 uM", "value": 0.9079}, {"measurement": "Kinase inhibition profile of HGSOC cells (growth inhibition, Cell Titer Glo)", "setting": "Kuramochi; drug 1.2 uM", "value": 1.007}, {"measurement": "Kinase inhibition profile of HGSOC cells (growth inhibition, Cell Titer Glo)", "setting": "OVCAR4; drug 1.2 uM", "value": 1.062}, {"measurement": "Kinase inhibition profile of HGSOC cells (growth inhibition, Cell Titer Glo)", "setting": "OVSAHO; drug 1.2 uM", "value": 1.102}, {"measurement": "Kinase inhibition profile of HGSOC cells (growth inhibition, Cell Titer Glo)", "setting": "SNU-119; drug 1.2 uM", "value": 1.028}]}, {"compound": "NC(=O)Nc1sc(-c2ccc(F)cc2)cc1C(N)=O", "note": "[TPCA-1]", "values": [{"measurement": "Kinase inhibition profile of HGSOC cells (growth inhibition, Cell Titer Glo)", "setting": "COV362; drug 1.2 uM", "value": 1.094}, {"measurement": "Kinase inhibition profile of HGSOC cells (growth inhibition, Cell Titer Glo)", "setting": "Kuramochi; drug 1.2 uM", "value": 0.988}, {"measurement": "Kinase inhibition profile of HGSOC cells (growth inhibition, Cell Titer Glo)", "setting": "OVCAR4; drug 1.2 uM", "value": 0.8768}, {"measurement": "Kinase inhibition profile of HGSOC cells (growth inhibition, Cell Titer Glo)", "setting": "OVSAHO; drug 1.2 uM", "value": 0.9827}, {"measurement": "Kinase inhibition profile of HGSOC cells (growth inhibition, Cell Titer Glo)", "setting": "SNU-119; drug 1.2 uM", "value": 0.9375}]}, {"compound": "CCc1cc(Nc2nccc(-c3c(-c4ccc(OC)c(C(=O)Nc5c(F)cccc5F)c4)nc4ccccn34)n2)c(OC)cc1N1CCC(N2CCN(S(C)(=O)=O)CC2)CC1", "note": "[GSK529A]", "values": [{"measurement": "Kinase inhibition profile of HGSOC cells (growth inhibition, Cell Titer Glo)", "setting": "COV362; drug 5 uM", "value": 0.9731}, {"measurement": "Kinase inhibition profile of HGSOC cells (growth inhibition, Cell Titer Glo)", "setting": "Kuramochi; drug 5 uM", "value": 0.9732}, {"measurement": "Kinase inhibition profile of HGSOC cells (growth inhibition, Cell Titer Glo)", "setting": "OVCAR4; drug 5 uM", "value": 0.5226}, {"measurement": "Kinase inhibition profile of HGSOC cells (growth inhibition, Cell Titer Glo)", "setting": "OVSAHO; drug 5 uM", "value": 0.6574}, {"measurement": "Kinase inhibition profile of HGSOC cells (growth inhibition, Cell Titer Glo)", "setting": "SNU-119; drug 5 uM", "value": 0.6579}]}]}
